Results as given in patent publication US20100215594A1, “Tyrosinase Inhibitors” (priority 2007, published 2010).

These compounds were tested against tyrosinase from fungi (assay: Tyrosinase assay (L-DOPA as substrate, optical density at 470 nm)). Settings: tyrosinase from fungi (16U, Fluka), phosphate buffer pH 6.8, 10 min pre-incubation at 25° C., read-out: IC50 (concentration of the test compound at which 50% of the tyrosinase activity is inhibited).
Format: biochemical
Experimental: The action of the compounds I or Ia as skin lighteners is tested through their ability to inhibit the enzyme tyrosinase and thus to suppress melanin synthesis.
The inhibiting action of the compounds of the formula I or Ia against tyrosinase was assessed using tyrosinase from fungi and L-DOPA as substrate.
The compounds (1) and (2), as obtained in Example 1, and L-dopa are pre-incubated for 10 minutes at 25° C. in phosphate buffer (pH 6.8), and tyrosinase from fungi (16U) (Fluka) is subsequently added. The optical density of the samples is measured at 470 nm against a negative control (without active compound). Kojic acid and 4-hexylresorcinol are also tested as tyrosinase reference, i.e. positive control.
The results are shown in the following table, expressed in the IC50 value (the concentration of the test compound at which 50% of the tyrosinase activity is inhibited).

Row | IC50 [µM] | Structure (SMILES)
1 | 0.5 | CCCCCCc1ccc(O)cc1O [4-Hexylresorcinol]
2 | 19 | CCCCCCc1ccc(OC(=O)C2CCC(=O)N2)cc1O (stereo not drawn) [(1), 4-Hexyl-3-hydroxyphenyl 2-pyrrolidinone-5-carboxylate]

Row | Structure (SMILES) | IC50 [µM]
3 | O=c1cc(CO)occ1O [Kojic acid] | 12
